Experiments:
[1] = biological target: T1, Acetylcholinesterase (Electrophorus electricus, UniProt O42275); assay: Inhibition of electric eel AChE using acetylthiocholine iodide substrate by Ellman method based spectrophotometry
[2] = biological target: Cholinesterase (Equus caballus, UniProt P81908); assay: Inhibition of equine serum BuChE using butyrylthiocholine iodide substrate by Ellman method based spectrophotometry
[3] = Selectivity index, ratio of IC50 for equine serum BuChE to IC50 for electric eel AChE
[4] = biological target: T1, Acetylcholinesterase; assay: Mixed type inhibition of electric eel AChE using acetylthiocholine iodide substrate by Lineweaver-Burk plot analysis

Cholinesterase, sequence (P81908 whole entry): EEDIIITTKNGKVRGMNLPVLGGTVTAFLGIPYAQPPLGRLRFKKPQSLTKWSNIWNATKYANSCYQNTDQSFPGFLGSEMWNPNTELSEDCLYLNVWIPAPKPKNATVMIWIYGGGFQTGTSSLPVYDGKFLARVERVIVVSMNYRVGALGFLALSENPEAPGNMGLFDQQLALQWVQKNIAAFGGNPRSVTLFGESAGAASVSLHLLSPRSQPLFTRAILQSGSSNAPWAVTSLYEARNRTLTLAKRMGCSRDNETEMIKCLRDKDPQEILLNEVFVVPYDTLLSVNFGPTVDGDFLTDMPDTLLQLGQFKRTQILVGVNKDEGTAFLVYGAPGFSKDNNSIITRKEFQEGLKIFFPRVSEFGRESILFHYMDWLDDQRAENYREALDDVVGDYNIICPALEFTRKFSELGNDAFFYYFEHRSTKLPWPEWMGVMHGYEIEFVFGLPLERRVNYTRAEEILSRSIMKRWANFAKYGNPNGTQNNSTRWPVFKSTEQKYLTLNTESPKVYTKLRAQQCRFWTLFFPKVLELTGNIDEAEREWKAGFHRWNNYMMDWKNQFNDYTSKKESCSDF
T1 sequence (O42275 whole entry): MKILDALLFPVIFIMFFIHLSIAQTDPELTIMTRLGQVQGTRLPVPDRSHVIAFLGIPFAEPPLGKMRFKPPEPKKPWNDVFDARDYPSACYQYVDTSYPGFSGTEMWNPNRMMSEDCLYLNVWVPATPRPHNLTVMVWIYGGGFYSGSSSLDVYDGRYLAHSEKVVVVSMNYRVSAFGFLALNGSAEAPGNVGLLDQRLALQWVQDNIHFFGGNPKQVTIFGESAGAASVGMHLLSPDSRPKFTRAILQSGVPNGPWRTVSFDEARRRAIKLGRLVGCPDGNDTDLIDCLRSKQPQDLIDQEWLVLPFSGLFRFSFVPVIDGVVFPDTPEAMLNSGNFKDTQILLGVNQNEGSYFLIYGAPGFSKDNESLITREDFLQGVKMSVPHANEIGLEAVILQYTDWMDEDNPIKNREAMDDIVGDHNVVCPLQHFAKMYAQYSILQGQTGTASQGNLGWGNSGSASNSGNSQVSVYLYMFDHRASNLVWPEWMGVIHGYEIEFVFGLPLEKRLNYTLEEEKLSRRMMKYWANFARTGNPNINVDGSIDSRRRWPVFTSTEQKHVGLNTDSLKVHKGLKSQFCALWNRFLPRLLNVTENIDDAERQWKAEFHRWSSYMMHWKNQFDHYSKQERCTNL

Row | Compound | IC50 [1] | IC50 [2] | Ratio IC50 [3] | Ki [4]
1 | O=C1Nc2ccccc2/C1=C\c1cc[n+](Cc2ccc(Cl)cc2Cl)cc1 | 0.258 µM | 2.5 µM | 9.7 | 
2 | Cc1ccccc1C[n+]1ccc(/C=C2/C(=O)Nc3ccccc32)cc1 | 0.0153 µM | 0.887 µM | 57.9 | 
3 | O=C1Nc2ccccc2/C1=C\c1cc[n+](Cc2ccccc2F)cc1 | 0.00125 µM | 4.27 µM | 3420 | 
4 | O=C1Nc2ccccc2/C1=C\c1cc[n+](Cc2ccc(Br)cc2)cc1 | 0.653 µM | 1.9 µM | 2.9 | 
5 | O=C1Nc2ccccc2/C1=C\c1cc[n+](Cc2c(Cl)cccc2Cl)cc1 | 0.017 µM | 1.5 µM | 88.2 | 
6 | O=C1Nc2ccccc2/C1=C\c1cc[n+](Cc2ccc([N+](=O)[O-])cc2)cc1 | 0.744 µM | 7.5 µM | 10 | 
7 | O=C1Nc2ccccc2/C1=C\c1cc[n+](Cc2cccc(Cl)c2)cc1 | 0.0049 µM | 1.35 µM | 276 | 
8 | O=C1Nc2ccccc2/C1=C\c1cc[n+](Cc2c(F)cccc2Cl)cc1 | 0.0041 µM | 2 µM | 488 | 
9 | O=C1Nc2ccccc2/C1=C\c1cc[n+](Cc2ccc(Cl)c(Cl)c2)cc1 | 0.0294 µM | 3.3 µM | 112 | 
10 | O=C1Nc2ccccc2/C1=C\c1cc[n+](Cc2cccc(Br)c2)cc1 | 0.0103 µM | 1.74 µM | 169 | 
11 | Cc1cccc(C[n+]2ccc(/C=C3/C(=O)Nc4ccccc43)cc2)c1 | 0.0052 µM | 1.7 µM | 327 | 
12 | O=C1Nc2ccccc2/C1=C\c1cc[n+](Cc2ccccc2[N+](=O)[O-])cc1 | 0.214 µM | 1.6 µM | 7.5 | 
13 | O=C1Nc2ccccc2/C1=C\c1cc[n+](Cc2ccccc2Cl)cc1 | 0.00044 µM | 1.37 µM | 3110 | 0.00114 µM
14 | COc1cccc(C[n+]2ccc(/C=C3/C(=O)Nc4ccccc43)cc2)c1 | 0.0066 µM | 2.8 µM | 424 | 
15 | O=C1Nc2ccccc2/C1=C\c1cc[n+](Cc2ccc(Cl)cc2)cc1 | 0.59 µM | 2.2 µM | 3.73 | 
16 | O=C1Nc2ccccc2/C1=C\c1cc[n+](Cc2cccc(F)c2)cc1 | 0.0128 µM | 4.5 µM | 352 | 
17 | COc1ccc(C[n+]2ccc(/C=C3/C(=O)Nc4ccccc43)cc2)cc1 | 0.677 µM | 7.9 µM | 11.7 | 
18 | O=C1Nc2ccccc2/C1=C\c1cc[n+](Cc2ccccc2)cc1 | 0.0471 µM | 4.3 µM | 91.3 | 
19 | O=C1Nc2ccccc2/C1=C\c1cc[n+](Cc2ccc(CCl)cc2)cc1 | 0.103 µM | 1 µM | 9.67 | 
20 | O=C1Nc2ccccc2/C1=C\c1cc[n+](Cc2ccc(F)cc2)cc1 | 0.677 µM | 3.1 µM | 4.58 | 
21 | O=C1Nc2ccccc2/C1=C\c1cc[n+](Cc2ccccc2Br)cc1 | 0.00146 µM | 1.23 µM | 842 | 

Reference: ChEMBL document CHEMBL3352659, “Indolinone-based acetylcholinesterase inhibitors: synthesis, biological activity and molecular modeling” (Eur J Med Chem, 2014)
